In patent publication US11708318B2, “Polymorphic forms of RAD1901-2HCL” (Radius Pharmaceuticals, Inc., priority 2017, dated 2023):
Read-outs that look alike come from different tables or passages of the source.

How the values were obtained:
[1] = Solubility assessment of Sample 1 (majorly Form 1) in 24 solvent systems; format: physicochemical
[2] = as above; format: physicochemical; details: organic solvent or mixture
Method: Solubility assessment was carried out on the Sample 1 of RAD1901-2HCl (majorly Form 1 shown by XRPD) in 24 solvent systems in HPLC vials (sample IDs: A1 to A24). RAD1901-2HCl (25 mg) was treated with increasing volumes of solvent until the material fully dissolved or until a maximum of 60 vol had been used (Table 13).
After each addition of solvent, the system was stirred for 5 to 10 minutes at 25° C., then shaken at 50° C. for 5 to 10 minutes, and observations made. Samples were allowed to stand at room temperature for 5 min before the addition of a new aliquot of solvent. After the assessment was completed, the suspensions obtained were matured (maturation) and the clear solutions were cooled (cooling) and slowly evaporated (evaporation) as described below. All solids recovered from maturation, cooling and evaporation experiments were analyzed by high resolution XRPD.

Solubility in alcohols, esters, and hydrocarbon solvents ([1]; alcohols, esters, hydrocarbon solvents): low solubility
Solubility in t-butanol/water (1:1) ([1]; t-butanol/water (1:1)): high solubility
solubility ([2]; 1,2-dimethoxyethane, 50 °C, thermodynamic from solid, 1,2-dimethoxyethane, sample ID A16, read-out: Solubility assessment 10 vol.): < 100 mg/mL
solubility ([2]; 1,2-dimethoxyethane, 50 °C, thermodynamic from solid, 1,2-dimethoxyethane, sample ID A16, read-out: Solubility assessment 20 vol.): < 50 mg/mL
solubility ([2]; 1,2-dimethoxyethane, 50 °C, thermodynamic from solid, 1,2-dimethoxyethane, sample ID A16, read-out: Solubility assessment 40 vol.): < 25 mg/mL
solubility ([2]; 1,2-dimethoxyethane, 50 °C, thermodynamic from solid, 1,2-dimethoxyethane, sample ID A16, read-out: Solubility assessment 60 vol.): < 16.7 mg/mL
solubility ([2]; 1,4-dioxane, 50 °C, thermodynamic from solid, 1,4-Dioxane, sample ID A14, read-out: Solubility assessment 10 vol.): < 100 mg/mL
solubility ([2]; 1,4-dioxane, 50 °C, thermodynamic from solid, 1,4-Dioxane, sample ID A14, read-out: Solubility assessment 20 vol.): < 50 mg/mL
solubility ([2]; 1,4-dioxane, 50 °C, thermodynamic from solid, 1,4-Dioxane, sample ID A14, read-out: Solubility assessment 40 vol.): < 25 mg/mL
solubility ([2]; 1,4-dioxane, 50 °C, thermodynamic from solid, 1,4-Dioxane, sample ID A14, read-out: Solubility assessment 60 vol.): < 16.7 mg/mL
solubility ([2]; 1-propanol, 50 °C, thermodynamic from solid, 1-propanol, sample ID A8, read-out: Solubility assessment 10 vol.): < 100 mg/mL
solubility ([2]; 1-propanol, 50 °C, thermodynamic from solid, 1-propanol, sample ID A8, read-out: Solubility assessment 20 vol.): < 50 mg/mL
solubility ([2]; 1-propanol, 50 °C, thermodynamic from solid, 1-propanol, sample ID A8, read-out: Solubility assessment 40 vol.): < 25 mg/mL
solubility ([2]; 1-propanol, 50 °C, thermodynamic from solid, 1-propanol, sample ID A8, read-out: Solubility assessment 60 vol.): < 16.7 mg/mL
solubility ([2]; 2-propanol, 50 °C, thermodynamic from solid, 2-propanol, sample ID A6, read-out: Solubility assessment 10 vol.): < 100 mg/mL
solubility ([2]; 2-propanol, 50 °C, thermodynamic from solid, 2-propanol, sample ID A6, read-out: Solubility assessment 20 vol.): < 50 mg/mL
solubility ([2]; 2-propanol, 50 °C, thermodynamic from solid, 2-propanol, sample ID A6, read-out: Solubility assessment 40 vol.): < 25 mg/mL
solubility ([2]; 2-propanol, 50 °C, thermodynamic from solid, 2-propanol, sample ID A6, read-out: Solubility assessment 60 vol.): < 16.7 mg/mL
solubility ([2]; 10% water/EtOH, 50 °C, thermodynamic from solid, 10% water/EtOH, sample ID A22, read-out: Solubility assessment 10 vol.): 50 to 100 mg/mL
solubility ([2]; 10% water/EtOH, 50 °C, thermodynamic from solid, 10% water/EtOH, sample ID A22, read-out: Solubility assessment 20 vol.): 50 to 100 mg/mL
solubility ([2]; 10% water/IPA, 50 °C, thermodynamic from solid, 10% water/IPA, sample ID A23, read-out: Solubility assessment 10 vol.): < 100 mg/mL
solubility ([2]; 10% water/IPA, 50 °C, thermodynamic from solid, 10% water/IPA, sample ID A23, read-out: Solubility assessment 20 vol.): < 50 mg/mL
solubility ([2]; 10% water/IPA, 50 °C, thermodynamic from solid, 10% water/IPA, sample ID A23, read-out: Solubility assessment 40 vol.): 16.7 to 25 mg/mL
solubility ([2]; 10% water/IPA, 50 °C, thermodynamic from solid, 10% water/IPA, sample ID A23, read-out: Solubility assessment 60 vol.): 16.7 to 25 mg/mL
solubility ([2]; 10% water/THF, 50 °C, thermodynamic from solid, 10% water/THF, sample ID A24, read-out: Solubility assessment 10 vol.): < 100 mg/mL
solubility ([2]; 10% water/THF, 50 °C, thermodynamic from solid, 10% water/THF, sample ID A24, read-out: Solubility assessment 20 vol.): < 50 mg/mL
solubility ([2]; 10% water/THF, 50 °C, thermodynamic from solid, 10% water/THF, sample ID A24, read-out: Solubility assessment 40 vol.): 16.7 to 25 mg/mL
solubility ([2]; 10% water/THF, 50 °C, thermodynamic from solid, 10% water/THF, sample ID A24, read-out: Solubility assessment 60 vol.): 16.7 to 25 mg/mL
solubility ([2]; MEK, 50 °C, thermodynamic from solid, MEK, sample ID A7, read-out: Solubility assessment 10 vol.): < 100 mg/mL
solubility ([2]; MEK, 50 °C, thermodynamic from solid, MEK, sample ID A7, read-out: Solubility assessment 20 vol.): < 50 mg/mL
solubility ([2]; MEK, 50 °C, thermodynamic from solid, MEK, sample ID A7, read-out: Solubility assessment 40 vol.): < 25 mg/mL
solubility ([2]; MEK, thermodynamic from solid, MEK, sample ID A7, read-out: Solubility assessment 60 vol.): < 16.7 mg/mL
solubility ([2]; MIBK, 50 °C, thermodynamic from solid, MIBK, sample ID A5, read-out: Solubility assessment 10 vol.): < 100 mg/mL
solubility ([2]; MIBK, 50 °C, thermodynamic from solid, MIBK, sample ID A5, read-out: Solubility assessment 20 vol.): < 50 mg/mL
solubility ([2]; MIBK, 50 °C, thermodynamic from solid, MIBK, sample ID A5, read-out: Solubility assessment 40 vol.): < 25 mg/mL
solubility ([2]; MIBK, thermodynamic from solid, MIBK, sample ID A5, read-out: Solubility assessment 60 vol.): < 16.7 mg/mL
solubility ([2]; TBME, 50 °C, thermodynamic from solid, TBME, sample ID A13, read-out: Solubility assessment 10 vol.): < 100 mg/mL
solubility ([2]; TBME, 50 °C, thermodynamic from solid, TBME, sample ID A13, read-out: Solubility assessment 20 vol.): < 50 mg/mL
solubility ([2]; TBME, 50 °C, thermodynamic from solid, TBME, sample ID A13, read-out: Solubility assessment 40 vol.): < 25 mg/mL
solubility ([2]; TBME, thermodynamic from solid, TBME, sample ID A13, read-out: Solubility assessment 60 vol.): < 16.7 mg/mL
solubility ([2]; acetone, 50 °C, thermodynamic from solid, Acetone, sample ID A9, read-out: Solubility assessment 10 vol.): < 100 mg/mL
solubility ([2]; acetone, 50 °C, thermodynamic from solid, Acetone, sample ID A9, read-out: Solubility assessment 20 vol.): < 50 mg/mL
solubility ([2]; acetone, 50 °C, thermodynamic from solid, Acetone, sample ID A9, read-out: Solubility assessment 40 vol.): < 25 mg/mL
solubility ([2]; acetone, 50 °C, thermodynamic from solid, Acetone, sample ID A9, read-out: Solubility assessment 60 vol.): < 16.7 mg/mL
solubility ([2]; acetonitrile, 50 °C, thermodynamic from solid, Acetonitrile, sample ID A19, read-out: Solubility assessment 10 vol.): < 100 mg/mL
SMILES: CCNCCc1ccc(CN(CC)c2cc(OC)ccc2[C@@H]2CCc3cc(O)ccc3C2)cc1.Cl.Cl [Sample 1]
